Data from patent US20130064821A1, “METHODS AND COMPOSITIONS FOR TREATING PROSTATE CANCER” (priority 2007, published 2013).

Columns and labels:
[1] = test system: LNCaP cells; experiment: In vitro growth proliferation study of LNCaP cells, calcein fluorescence assay; format: cell-based, human; conditions: nilutamide 0.1 μM, 5 days (120 hours), mean of six wells
Description: A human hormone sensitive prostate cancer cell line, LNCaP1 was exposed to the AR-LBD-IgG1 FC fusion protein as described in Example 1. The effects of the polypeptide on the growth and proliferation of the cells was then assessed.
In addition, LNCaP cells were also cultured in the presence of the non-steroidal antiandrogen nilutamide
The human prostate cancer cell line, LNCaP was obtained from American Type Tissue Collection (ATCC) and was routinely cultured in growth medium containing phenol red RPM1 1640 (Invitrogen, Auckland, New Zealand) supplemented with 10% fetal bovine serum (FBS1 G1BCO) and 1% antibiotic/antimycotic miyture (Invitrogen, Auckland, New Zealand). Cells were maintained at 37° C. in 5% CO2.
2×10^3 LNCaP cells were plated per well in a Falcon 96-well plate in 5% CO2/37° C. in growth medium in growth medium containing phenol red RPMI 1640 (Invitrogen, Auckland, New Zealand) supplemented with 10% fetal bovine serum (FBS, G1BCO) and 1% antibiotic/antimycotic mixture (Invitrogen, Auckland, New Zealand). Cells were treated with either AR-LBD IgG1 Fc fusion protein (12 ng/ml ) or IgG1 Fc control protein (12 ng/ml). […] Calcein positive cells were detected using a FLUOstar OPTIMA plate reader (BMG Labtech, Victoria, Australia). […]

[2] = test system: LNCaP cells, secreted PSA; experiment: PSA production and secretion study in LNCaP cells with T and DHT (Example 7, PSA ELISA); format: cell-based, human; conditions: 0.1 nM androgen, 120 hours, versus 5% CSS media alone, mean of 6 wells
Description: The effects of the polypeptide on the production and secretion of the prostate specific antigen, PSA, was then assessed.
The human prostate cancer cell line, LNCaP was obtained from American Type Tissue Collection (ATCC) and was routinely cultured in growth medium containing phenol red RPMI 1640 (Invitrogen, Auckland, New Zealand) supplemented with 10% fetal bovine serum (FBS, GIBCO) and 1% antibiotic/antimycotic mixture (Invitrogen, Auckland, New Zealand). Cells were maintained at 37° C. in 5% CO2. Dilutions were made for the polypeptide (20 ng/ml) in 5% charcoal strip serum (CSS, HyClone) for in vitro experiments.
3×10^3 LNCaP cells were plated per well in quadruplicate in a Falcon 96-well plate and allowed to attach overnight at 5% CO2/37° C. in growth medium (as indicated above). The medium was replaced with fresh complete growth medium after 36 hours. […] After 120 hours in culture, cell culture media was collected from each well and a PSA reading was measured in duplicate for each well. Human PSA was measured according to the manufacturers methodology using the PSA ELISA from Diagnostic Systems Laboratories (Cat number: DSL-10-9700).
Data are presented as means unless otherwise indicated.

[3] = test system: LNCaP cells, secreted PSA; experiment: PSA production and secretion study in LNCaP cells (Example 6, PSA ELISA); format: cell-based, human; conditions: 0.1 nM DHT, 120 hours, versus 5% CSS media alone
Description: A human hormone sensitive prostate cancer cell line, LNCaP (ATCC), was exposed to a polypeptide as described in Example 1. The effects of the polypeptide on the production and secretion of the prostate specific antigen, PSA, was then assessed.
The human prostate cancer cell line, LNCaP was obtained from American Type Tissue Collection (ATCC) and was routinely cultured in growth medium containing phenol red RPMI 1640 (Invitrogen, Auckland, New Zealand) supplemented with 10% fetal bovine serum (FBS, 15 GIBCO) and 1% antibiotic/antimycotic mixture (Invitrogen, Auckland, New Zealand). Cells were maintained at 37° C. in 5% CO2. Dilutions were made for the polypeptide (20 ng/ml) in 5% charcoal strip serum (CSS, HyClone) for in vitro experiments.
3×10^3 LNCaP cells were plated per well in quadruplicate in a Falcon 96-well plate and allowed to attach overnight at 5% CO2/37° C. in growth medium (as indicated above). The medium was replaced with fresh complete growth medium after 36 hours. […] After 120 hours in culture, cell culture media was collected from each well and PSA reading was measured in duplicate for each well. Human PSA was measured according to the manufacturers methodology using the PSA ELISA from Diagnostic Systems Laboratories (cat number: DSL-10-9700).
Data are presented as means unless otherwise indicated. Error bars represent the 95% confidence intervals.

[4] = target: albumin (Homo sapiens, UniProt P02768); conditions: serum, men; cited from earlier work
Sequence of albumin (P02768 25-609): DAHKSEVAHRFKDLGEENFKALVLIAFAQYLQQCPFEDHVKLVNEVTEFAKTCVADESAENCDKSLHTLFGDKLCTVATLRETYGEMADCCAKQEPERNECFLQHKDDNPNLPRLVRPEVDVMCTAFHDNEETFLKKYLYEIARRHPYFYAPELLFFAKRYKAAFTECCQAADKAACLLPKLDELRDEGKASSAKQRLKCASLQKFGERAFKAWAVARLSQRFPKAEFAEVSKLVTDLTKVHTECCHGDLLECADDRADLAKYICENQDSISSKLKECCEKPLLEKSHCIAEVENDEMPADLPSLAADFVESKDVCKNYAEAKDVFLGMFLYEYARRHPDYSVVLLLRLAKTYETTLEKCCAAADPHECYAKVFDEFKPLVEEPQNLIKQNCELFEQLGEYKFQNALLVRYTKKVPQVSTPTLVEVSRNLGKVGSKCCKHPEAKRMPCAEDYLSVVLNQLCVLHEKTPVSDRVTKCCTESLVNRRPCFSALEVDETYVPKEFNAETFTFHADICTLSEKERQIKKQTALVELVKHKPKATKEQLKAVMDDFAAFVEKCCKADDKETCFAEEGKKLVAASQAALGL

[5] = target: T1, sex hormone binding globulin (SHBG) (Homo sapiens, UniProt P04278); conditions: serum, men; cited from earlier work
T1 sequence (P04278 30-402): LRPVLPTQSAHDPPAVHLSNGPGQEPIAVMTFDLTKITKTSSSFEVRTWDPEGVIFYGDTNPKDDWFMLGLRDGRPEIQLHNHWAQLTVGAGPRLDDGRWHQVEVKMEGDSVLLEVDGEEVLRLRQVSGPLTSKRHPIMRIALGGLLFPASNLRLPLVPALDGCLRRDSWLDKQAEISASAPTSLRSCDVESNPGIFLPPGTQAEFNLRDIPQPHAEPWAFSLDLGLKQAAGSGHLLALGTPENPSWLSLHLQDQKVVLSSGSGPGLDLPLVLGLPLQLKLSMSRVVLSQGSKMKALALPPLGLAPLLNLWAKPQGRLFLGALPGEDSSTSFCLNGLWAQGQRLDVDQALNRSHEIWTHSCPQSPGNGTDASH

Compound | reduction of prostate cancer cell proliferation [1] | effect of androgen on secreted PSA [2] | effect of androgen on secreted PSA [3] | association constant (Ka) with albumin [4] | association constant (Ka) with SHBG [5]
CC1(C)NC(=O)N(c2ccc([N+](=O)[O-])c(C(F)(F)F)c2)C1=O [nilutamide] | 80% | – | – | – | –
C[C@]12CCC(=O)C[C@@H]1CC[C@@H]1[C@@H]2CC[C@]2(C)[C@@H](O)CC[C@@H]12 [DHT, dihydrotestosterone] | – | strongly boost production of secreted PSA | significantly boost production of secreted PSA | – | –
C[C@]12CC[C@H]3[C@@H](CCC4=CC(=O)CC[C@@]43C)[C@@H]1CC[C@@H]2O [Testosterone, testosterone] | – | clearly increase production of PSA | – | about 3×10^4 L/mol | about 1×10^9 L/mol
